Assay results reported in paper PMC3914206.

How the values were obtained:
[1] = biological target: T1, panel of 442 kinases (Homo sapiens, UniProt Q86UX6); assay type: binding; conditions: kinase YANK3; compound concentration 10 µM
T1 construct: purchased KINOMEscan
Description: (§1) We assessed the selectivity of members of this scaffold using the KINOMEscan methodology across a near comprehensive panel of 442 kinases [[18,27]].

[2] = biological target: T2, panel of 442 kinases (Homo sapiens, UniProt O75385); assay type: binding; conditions: kinase ULK1; compound concentration 10 µM
T2 construct: purchased KINOMEscan
T2 sequence (O75385 1-1050): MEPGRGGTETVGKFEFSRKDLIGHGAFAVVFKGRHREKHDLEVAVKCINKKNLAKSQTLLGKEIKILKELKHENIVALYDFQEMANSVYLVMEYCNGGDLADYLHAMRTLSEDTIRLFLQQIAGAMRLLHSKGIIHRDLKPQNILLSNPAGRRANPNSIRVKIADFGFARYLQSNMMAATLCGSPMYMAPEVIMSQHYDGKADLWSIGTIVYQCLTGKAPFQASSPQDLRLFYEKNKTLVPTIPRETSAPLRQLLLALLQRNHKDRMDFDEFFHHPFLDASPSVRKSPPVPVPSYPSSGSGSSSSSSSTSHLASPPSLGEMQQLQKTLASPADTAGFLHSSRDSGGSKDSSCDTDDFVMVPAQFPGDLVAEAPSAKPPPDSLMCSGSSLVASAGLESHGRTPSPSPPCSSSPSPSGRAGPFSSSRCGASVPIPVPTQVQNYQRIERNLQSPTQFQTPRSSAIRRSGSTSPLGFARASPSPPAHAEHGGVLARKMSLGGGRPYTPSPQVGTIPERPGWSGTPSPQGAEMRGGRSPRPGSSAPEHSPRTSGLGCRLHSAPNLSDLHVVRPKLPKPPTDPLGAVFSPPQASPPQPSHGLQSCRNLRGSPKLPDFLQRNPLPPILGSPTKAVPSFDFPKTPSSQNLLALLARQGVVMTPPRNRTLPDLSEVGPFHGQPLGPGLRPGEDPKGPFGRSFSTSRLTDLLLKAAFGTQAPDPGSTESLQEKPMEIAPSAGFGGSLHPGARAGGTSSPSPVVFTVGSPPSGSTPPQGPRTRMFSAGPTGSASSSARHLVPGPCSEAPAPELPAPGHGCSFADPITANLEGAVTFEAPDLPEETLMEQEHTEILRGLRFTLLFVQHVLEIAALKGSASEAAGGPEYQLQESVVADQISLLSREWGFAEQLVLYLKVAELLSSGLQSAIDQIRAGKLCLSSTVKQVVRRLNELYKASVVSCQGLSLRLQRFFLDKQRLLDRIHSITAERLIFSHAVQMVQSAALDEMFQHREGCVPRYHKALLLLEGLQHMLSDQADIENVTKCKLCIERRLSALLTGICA
Description: as §1

T1 sequence (Q86UX6 whole entry): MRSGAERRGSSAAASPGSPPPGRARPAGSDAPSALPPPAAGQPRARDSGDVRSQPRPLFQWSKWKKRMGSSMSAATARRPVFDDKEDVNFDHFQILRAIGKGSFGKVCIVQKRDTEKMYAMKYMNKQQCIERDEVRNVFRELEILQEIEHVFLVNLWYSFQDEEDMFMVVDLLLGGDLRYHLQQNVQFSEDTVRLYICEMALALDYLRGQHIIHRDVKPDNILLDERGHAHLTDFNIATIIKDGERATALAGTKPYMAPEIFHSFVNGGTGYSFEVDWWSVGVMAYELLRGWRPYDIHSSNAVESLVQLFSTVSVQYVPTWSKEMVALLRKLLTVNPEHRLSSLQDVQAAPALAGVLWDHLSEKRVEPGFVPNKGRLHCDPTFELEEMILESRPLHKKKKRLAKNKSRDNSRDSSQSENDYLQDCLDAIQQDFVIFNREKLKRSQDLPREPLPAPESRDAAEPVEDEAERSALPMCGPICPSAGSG

Row | Structure (SMILES) | % Ctrl, YANK3 [1] | % Ctrl, ULK1 [2]
1 | COc1cc(C(=O)N2CCC(N3CCN(C)CC3)CC2)ccc1Nc1ncc2c(n1)N(C)c1ccccc1C(=O)N2C [15 (LRRK2-IN-1)] | 100 % Ctrl | 80 % Ctrl
2 | COc1cc(C(=O)N2CCC(N3CCN(C)CC3)CC2)ccc1Nc1ncc2c(n1)N1CCc3cccc(c31)C(=O)N2C [Compound 24] | 100 % Ctrl | 100 % Ctrl
3 | COc1cc(C(=O)N2CCC(N3CCN(C)CC3)CC2)ccc1Nc1ncc2c(n1)N(C1CCCC1)c1ccccc1C(=O)N2C [Compound 25, 11-cyclopentyl-2-((2-methoxy-4-(4-(4-methylpiperazin-1-yl)piperidine-1-carbonyl)phenyl)amino)-5-methyl-5H-benzo[e]pyrimido[5,4-b][1,4]diazepin-6(11H)-one] | 100 % Ctrl | 100 % Ctrl
4 | CCOc1cc(C(=O)N2CCC(N3CCN(C)CC3)CC2)ccc1Nc1ncc2c(n1)N(C1CCCC1)c1ccccc1C(=O)N2C [Compound 26] | 100 % Ctrl | 100 % Ctrl
